Measured values published in US20240148745A1, “COMPOUNDS FOR USE IN PROGRESSIVE MULTIPLE SCLEROSIS” (FONDAZIONE CENTRO SAN RAFFAELE, priority 2021, published 2024).
Entries after “also recorded” stand apart in the source; their conditions may differ.

Legend:
[1] = test system: mouse cortical neurons; assay: Morphological integrity evaluation, NMDA 8 μM (MAP2 neurite length and branching); type: cell-based; settings: 3 h pre-treatment, NMDA 8 μM 24 h, Z>0.5 criteria
Method in brief: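 Mouse cortical neurons (14 DIV) pre-treated 3 h with compounds, then exposed 24 h to 8 μM NMDA; fixed, MAP2 immunostained with DAPI. Total neurite length and non-trunk branch number from 15 images/well, triplicates, converted to plate-based Z-scores; NAC positive, staurosporine and NMDA negative controls.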

[2] = test system: mouse cortical and striatal neurons; assay: Morphological integrity evaluation, NMDA 20 μM; type: cell-based; settings: 1 μM, 24 h pre-treatment, NMDA 20 μM 24 h
Description: Morphological integrity evaluation. Mouse cortical and striatal neurons (14 DIV) cultured in MW96 plates were exposed to 1 uM to 60 uM concentrations of NMDA and relationship between the NMDA dose and fiber length was evaluated. […] Each of the compound was tested in quadruplicate. The fiber length was evaluated by MAP2 staining (please see the method described earlier).
42 compounds were screened to evaluate the morphological integrity of cortical and striatal neurons upon chronic (24 h) NMDA exposure at concentration of 20 μM with compounds pre-treatment (24 h) in preventive regimen (FIG. 17).

[3] = test system: murine cortical neurons (14 DIV); assay: NMDA-mediated neuroprotective assay (CCK8 viability); type: cell-based, mouse; settings: 1 μM, 3 h pre-treatment, NMDA 8 μM 24 h, p<0.05
Method in brief: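 Primary murine cortical neurons pre-treated with 1 μM compound for 3 or 24 h, then exposed to 8 μM NMDA for 24 h. Viability read by CCK-8 and expressed relative to NMDA-only control; vehicle 0.02% DMSO.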

[4] = test system: rat oligodendrocyte progenitor CG4 line; assay: Differentiation assay on rat oligodendrocyte progenitor CG4 line (HCS, mCherry+); type: cell-based; settings: secondary screen of 49 selected compounds, 1 μM, 5 days
Method in brief: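 Double-reporter CG4 cells (mCherry in mature oligodendrocytes, EGFP in all lineage stages) proliferated 24 h, then given compounds at 1 μM for 5 days of differentiation, ⅔ medium changed at day 3. 9cis-RA as positive control, basal medium and 0.1% DMSO as negative; triplicates imaged by HCS, 35 fields/well.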

[5] = test system: rat primary OPC cultures; assay: Differentiation of rat primary OPC into MBP+ OLs; type: cell-based; settings: 96 h, 4 days of differentiation, read-out: MBP+ differentiation (MBP+/SOX10+ OLs plus compounds / plus basal medium)
Method in brief: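 Primary rat OPCs were differentiated for 4 days with compounds at […], in triplicate over 3 independent experiments. Cells were immunolabelled for CNPase, MBP and SOX10, and MBP+ oligodendrocytes were counted by imaging. Results are fold increase in MBP+/SOX10+ cells over basal medium; 9-cis-RA ([…]) was the positive control.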

[6] = test system: human iPS-derived neuroprecursors; assay: Differentiation of human iPS-derived neuroprecursors into MBP+ oligodendrocytes; type: cell-based; settings: 1 μM in minimal medium, p<0.05
From the text: NPC bearing a doxycycline inducible polycistronic construct containing SOX10, OLIG2 and NKX6.2^29 in a human safe harbor (passages 10 to 25) were singularized on day −3 by treatment with Accutase and plated on Matrigel-coated 12-well plates at a density of 100.000 cells per well in N2B27-medium containing equal parts of neurobasal (Invitrogen) and DMEM-F12 medium (Invitrogen) with 1:100 B27 supplement lacking vitamin A (Invitrogen), 1:200 N2 supplement (Invitrogen), 1% penicillin/streptomycin/glutamine (PSG), 3 μM CHIR99021 (Axon Medchem), 150 μM ascorbic acid and 0.5 μM SAG. The next day medium was changed to N2B27-medium containing 1 μg/ml doxycycline. On DO medium was changed to glial-induction medium (GIM) consisting of DMEM-F12 with 1:100 B27 supplement lacking vitamin A, 1:200 N2 supplement, 1% PSG, 1 μM SAG, 10 ng/mL NT3 (Peprotech), 10 ng/mL IGF-I (Peprotech), 200 μM AA (Sigma), 1:1000 Trace Elements B (Corning). For full medium conditions 10 ng/ml T3 was added. On Day 2 medium was changed to glial-differentiation medium (GDM) comprising DMEM-F12 with 1:100 B27 supplement lacking vitamin A, 1:200 N2 supplement, 1% PSG, 100 μM dbCAMP (Sigma), 100 μM AA, 1:1000. For full medium conditions 60 ng/mL T3, Trace Elements B 10 ng/mL, IGF-I, 10 ng/mL and NT3 were added to the culture. GDM was changed every other day. On day 7 cells were detached by treatment with Accutase and re-plated on laminin coated 48-well plates at densities of 10.000-12.000 cells per well. After 24 h cells were treated in minimal medium with either vehicle alone [0.01% (vol/vol) DMSO] as a negative control, 60 ng/mL T3 as a positive control, or with a drug candidate dissolved in DMSO. Medium was changed every other day. On D16 doxycycline was removed from the medium. Cells were fixed on D21 and analyzed via immunocytochemistry.
Immunocytochemistry. Cells were initially fixed with 4% PFA treatment for 20 min, RT. Following three washes with PBS cells were incubated with blocking solution containing 5% normal goat serum (NGS) and 5% FCS (fetal calf serum) in PBS for 30 min at RT to prevent unspecific binding of the antibodies. To detect intracellular antigens cells were permeabilized by adding 0.5% Triton X-100 to the Blocking-solution. Cells treated with Triton X-100 were washed three times with PBS each time for 5 min at RT. Primary antibodies (rat anti-MBP,1:50, Abcam, AB7349) were applied overnight, 4° C., in blocking solution. The next day cells were washed 3 times with PBS at RT, and afterwards incubated with secondary antibodies (AF488 Alexa Fluor anti-rat (goat), 1:500, Jackson/Dianova, #112-545-167) diluted in PBS for 1 h at RT. Secondary antibodies were subsequently removed by washing 3 times with PBS. Afterwards PBS containing a Dapi staining for nuclei was added for 5 minutes and afterwards washed off with PBS. Cells were kept at 4° C. until imaging.
Imaging and evaluation. From each condition (triplicates) 20-30 pictures were taken randomly chosen by the Dapi-signal. Cell numbers were determined by using an ImageJ Macro to count the nuclei whereas MBP positive cells were subsequently counted manually in black and white images.
The effect on oligodendroglial differentiation of 32 compounds (“Front runners”) was tested. Induced pluripotent stem cells in which the transcription factors SOX10, OLIG2, NKX6.2 were inserted in a doxycycline inducible manner into a human safe harbor were differentiated into neural stem cells. Differentiation into oligodendrocytes was induced by addition of doxycycline. Cells were cultured either in a minimal medium (MM) (negative control) or in MM with the different compounds at a concentration of 1 μM. Addition of T3 to the minimal medium served as a positive control.

[7] = test system: H9-derived human neural stem cells; assay: Neurotoxic or regenerative effect screening (CellTiter-Glo); type: cell-based; settings: 10 μM, three independent screenings
Description: H9-derived human neural stem cells (H9 hNSCs, Gibco) were cultured according to the manufacturer's instructions. Briefly, H9 hNSCs were expanded and subsequently differentiated in neurobasal medium, 2% B27, 1% Glutamax, and 1% penicillin/streptomycin, supplemented with 10 ng/ml BDNF (Peprotech), and 2 ng/ml recombinant human GDNF (Peprotech). After 7 days, 500 μM of db-cAMP (N6,2′-O-dibutyryladenosine 3′,5′-cyclic monophosphate, Sigma) was added.
The metabolic activity/viability of selected compounds (32 “Front Runners”+24 compounds from the “Short list”) was evaluated by CellTiter-Glo® Luminescent Cell Viability Assay. The primary screen of Front Runner List (32 compounds)+24 compounds from Short List) on H9-derived human neurons was performed at 10 μM concentration. The validation of hits from primary screen on H9-derived human neurons was performed at 10 μM concentration.
32 Front Runners were tested at 10 μM on H9-derived human neuronal cultures and viability was evaluated by CellTiter-Glo® Luminescent Cell Viability Assay.

Row | SMILES | morphological integrity (neurite length) of cortical and striatal neurons [2] | CG4 differentiation compared with 9cis-RA positive control [4] | fold induction at 1 µM [5] | cumulative Z-scores of ATP production/viability [7] | also measured
1 | O=c1[nH]c2cccc(N3CCN(Cc4cccc(-c5ccccc5)c4)CC3)c2o1 [Bifeprunox] | selected for confirmation |  |  |  | preservation of neurite length and network integrity (branching) [1]: preserved both neurite length and the network integrity (branching); preservation of neurite length and network integrity (branching) ([1]; listed as BIFEPRUNOX): two best-performing compounds
2 | CCC(COC(=O)c1cc(OC)c(OC)c(OC)c1)(c1ccccc1)N(C)C (stereo not shown) [Trimebutine] | hit-compound in both cortical and striatal neuronal assays |  |  |  | 
3 | O=C(Oc1ccc(Br)cc1)N1CCN2CCC1CC2 [SSR180711] | selected for confirmation |  |  |  | neuroprotection of viability/metabolic activity against NMDA [3]: hit compounds; preservation of neurite length and network integrity (branching) [1]: preserved both neurite length and the network integrity (branching); also recorded: two best-performing compounds
4 | COc1ccc(S(=O)(=O)n2cc(CCC(=O)O)c3cc(OC)ccc32)cc1 [Indeglitazar] |  | promoting differentiation significantly higher than 9cis-RA positive control | > 1.6 | potential hits | differentiation into MBP+ oligodendrocytes [6]: promote significantly (p<0.05) the differentiation into MBP+ oligodendrocytes
5 | Cc1ncc(OC[C@@]2(c3cccc(F)c3)C[C@H]2C(=O)Nc2ccc(F)cn2)c(C)n1 [Lemborexant] |  | promoting differentiation significantly higher than 9cis-RA positive control | > 1.6 | potential hits | 
6 | COc1ccc2c(OCc3nnc4ccc(-c5ccccc5)nn34)ccnc2c1 [AMG-208] | selected for confirmation |  |  |  | 
7 | C=CCc1ccccc1OCC(O)CNC(C)C (stereo not shown) [Alprenolol] |  | promoting differentiation significantly higher than 9cis-RA positive control | > 1.6 | potential hits | 
8 | Cc1c(Cn2c(C)nc3c(C(=O)O)cc(N4CCOCC4)cc32)cccc1C(F)(F)F [GSK-2636771] | selected for confirmation |  |  |  | 
9 | COc1ccc(Cl)cc1[C@]1(F)C(=O)Nc2cc(C(F)(F)F)ccc21 [Flindokalner] | selected for confirmation |  |  |  | 
10 | C[C@@H](C(=O)O)c1ccc(-c2ccccc2)c(F)c1 [Tarenflurbil] | selected for confirmation |  |  |  | neuroprotection of viability/metabolic activity against NMDA [3]: trend versus significance
